In PubChem BioAssay (NCI):
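The concentration for 50% growth inhibition is given as GI50. TGI: concentration producing complete growth inhibition.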

Key:
Test in all cases: inhibition of tumour cell growth, NCI panel, 384-well format
786-0 renal = system: 786-0 renal
A549 NSCLC = system: A549 NSCLC
BT-549 breast = system: BT-549 breast
CAKI-1 renal = system: CAKI-1 renal
CCRF-CEM leukemia = system: CCRF-CEM leukemia
COLO 205 colon = system: COLO 205 colon
EKVX NSCLC = system: EKVX NSCLC
HCC-2998 colon = system: HCC-2998 colon
HCT-116 colon = system: HCT-116 colon
HCT-15 colon = system: HCT-15 colon
HL-60(TB) leukemia = system: HL-60(TB) leukemia
HOP-62 NSCLC = system: HOP-62 NSCLC
HOP-92 NSCLC = system: HOP-92 NSCLC
HT29 colon = system: HT29 colon
IGROV1 ovarian = system: IGROV1 ovarian
K-562 leukemia = system: K-562 leukemia
LOX IMVI melanoma = system: LOX IMVI melanoma
M14 melanoma = system: M14 melanoma
MALME-3M melanoma = system: MALME-3M melanoma
MCF7 breast = system: MCF7 breast
MDA-MB-231 breast = system: MDA-MB-231 breast
MDA-MB-435 melanoma = system: MDA-MB-435 melanoma
MDA-MB-468 breast = system: MDA-MB-468 breast
MOLT-4 leukemia = system: MOLT-4 leukemia
NCI-H23 lung = system: NCI-H23 lung
NCI-H460 NSCLC = system: NCI-H460 NSCLC
NCI-H522 lung = system: NCI-H522 lung
NCI/ADR-RES ovarian = system: NCI/ADR-RES ovarian
OVCAR-3 ovarian = system: OVCAR-3 ovarian
OVCAR-4 ovarian = system: OVCAR-4 ovarian
OVCAR-5 ovarian = system: OVCAR-5 ovarian
RPMI-8226 leukemia = system: RPMI-8226 leukemia
RXF 393 renal = system: RXF 393 renal
SF-268 CNS = system: SF-268 CNS
SF-295 CNS = system: SF-295 CNS
SK-MEL-2 melanoma = system: SK-MEL-2 melanoma
SK-MEL-28 melanoma = system: SK-MEL-28 melanoma
SK-OV-3 ovarian = system: SK-OV-3 ovarian
SN12C renal = system: SN12C renal
SNB-75 CNS = system: SNB-75 CNS
SR leukemia = system: SR leukemia
SW-620 colon = system: SW-620 colon
TK-10 renal = system: TK-10 renal
U251 glioblastoma = system: U251 glioblastoma
UACC-257 melanoma = system: UACC-257 melanoma
UACC-62 melanoma = system: UACC-62 melanoma
UO-31 renal = system: UO-31 renal

## Nc1ncn(C2OC(CO)C(O)C2O)c(=O)n1 (stereo not drawn)
786-0 renal
  GI50: 1.87 µM
  TGI: > 42.3 µM
A549 NSCLC
  GI50: 3.24 µM
  TGI: > 38 µM
BT-549 breast
  GI50: 0.694 µM
  TGI: 3.31 µM
CAKI-1 renal
  GI50: 0.466 µM
  TGI: 4.35 µM
CCRF-CEM leukemia
  GI50: 0.993 µM
  TGI: 3.67 µM
COLO 205 colon
  GI50: 1.41 µM
  TGI: 10.9 µM
EKVX NSCLC
  GI50: 19.5 µM
  TGI: > 75.8 µM
HCC-2998 colon
  GI50: 1.58 µM
  TGI: 5.01 µM
HCT-116 colon
  GI50: 0.627 µM
  TGI: 2.57 µM
HCT-15 colon
  GI50: 2.11 µM
  TGI: 8.05 µM
HL-60(TB) leukemia
  GI50: 0.372 µM
  TGI: 0.806 µM
HOP-62 NSCLC
  GI50: 0.899 µM
  TGI: 3.51 µM
HOP-92 NSCLC
  GI50: 2.36 µM
  TGI: 30 µM
HT29 colon
  GI50: 3.52 µM
  TGI: 30.1 µM
IGROV1 ovarian
  GI50: 2.61 µM
  TGI: 10.3 µM
K-562 leukemia
  GI50: 0.657 µM
  TGI: 5.41 µM
LOX IMVI melanoma
  GI50: 0.531 µM
  TGI: 1.85 µM
M14 melanoma
  GI50: 1.45 µM
  TGI: 9.78 µM
MALME-3M melanoma
  GI50: 3.3 µM
  TGI: 16.7 µM
MCF7 breast
  GI50: 1.56 µM
  TGI: > 29.8 µM
MDA-MB-231 breast
  GI50: 1.55 µM
  TGI: 17.4 µM
MDA-MB-435 melanoma
  GI50: 1.71 µM
  TGI: 8.65 µM
MDA-MB-468 breast
  GI50: 0.529 µM
  TGI: 1.41 µM
MOLT-4 leukemia
  GI50: 1.32 µM
  TGI: 2.72 µM
NCI-H23 lung
  GI50: 7.25 µM
  TGI: 28.4 µM
NCI-H460 NSCLC
  GI50: 0.239 µM
  TGI: 1.27 µM
NCI-H522 lung
  GI50: 1.58 µM
  TGI: 6.41 µM
NCI/ADR-RES ovarian
  GI50: 4.25 µM
  TGI: > 35.6 µM
OVCAR-3 ovarian
  GI50: 1.46 µM
  TGI: 5.06 µM
OVCAR-4 ovarian
  GI50: 3.33 µM
  TGI: 23.8 µM
OVCAR-5 ovarian
  GI50: 3.22 µM
  TGI: 23 µM
RPMI-8226 leukemia
  GI50: 0.138 µM
  TGI: 0.59 µM
RXF 393 renal
  GI50: 1.25 µM
  TGI: 10.9 µM
SF-268 CNS
  GI50: 4.36 µM
  TGI: > 31.9 µM
SF-295 CNS
  GI50: 2.78 µM
  TGI: 16.5 µM
SK-MEL-2 melanoma
  GI50: 0.911 µM
  TGI: 2.85 µM
SK-MEL-28 melanoma
  GI50: 3.33 µM
  TGI: 18 µM
SK-OV-3 ovarian
  GI50: 3.18 µM
  TGI: > 27.7 µM
SN12C renal
  GI50: 1.58 µM
  TGI: 35.7 µM
SNB-75 CNS
  GI50: 2.23 µM
SR leukemia
  GI50: 0.165 µM
  TGI: 0.423 µM
SW-620 colon
  GI50: 2.25 µM
  TGI: > 34.7 µM
TK-10 renal
  GI50: 2.3 µM
  TGI: 30.5 µM
U251 glioblastoma
  GI50: 1.42 µM
  TGI: > 33.2 µM
UACC-257 melanoma
  GI50: 6.88 µM
  TGI: 33.3 µM
UACC-62 melanoma
  GI50: 0.561 µM
  TGI: 2.78 µM
UO-31 renal
  GI50: 2.5 µM
  TGI: 15.1 µM
